Experimental data as given in patent publication US6177426A, “Morpholino-N-ethyl ester prodrugs of indole sPLA2 inhibitors” (Eli Lilly and Company, priority 2000, dated 2001).

What was measured:
[1] = biological target: recombinant human secreted phospholipase A2; conditions: guinea pig lung tissue; sPLA2 10 ug/ml; data from U.S. Pat. No. 5,654,326; read-out: Tissue test secreted PLA2 Apparent KB; cited from earlier work
[2] = biological target: recombinant human secreted phospholipase A2; conditions: data from U.S. Pat. No. 5,654,326, cited from earlier work
[3] = Rat plasma pharmacokinetics study, oral bioavailability; format: in vivo, Rat (Fischer 344); conditions: compared to other ester prodrugs
Experimental: The bioavailability of the compound of the invention, ((3-(2-Amino-1,2-dioxoethyl)-1-((1,1'-biphenyl)-3-ylmethyl)-2-methyl-1H-indol-4-yl)oxy)acetic acid morpholino-N-ethyl ester, was determined using a Rat Study Protocol Plasma
The purpose of this assay was to evaluate and compare the oral delivery for selected sPLA2 inhibitors.
The amount of sPLA2 inhibitor was corrected for free acid equivalents.
Suspension of sPLA2 inhibitor in 10% Acacia, prepared just prior to dose administration
Dose: 10 mg/kg (of the parent acid)
Blood samples (0.8 ml) were obtained at the following times: 0.5, 1, 2, 4, 8 and 24 hours (2 rats/timepoint)
Plasma was assayed by HPLC to measure concentrations of the different sPLA2 inhibitors (measured as free acids). Cmax (maximal plasma concentrations), and AUC values were determined from the mean plasma concentration-time profiles.

Compound: Cc1c(C(=O)C(N)=O)c2c(OCC(=O)O)cccc2n1Cc1cccc(-c2ccccc2)c1 [formula (II)]
- Kb [1]: 57 ± 11 nM
- IC50 ([2]; chromogenic assay, 3-4 tests, read-out: Inhibition of human secreted PLA2 IC50 ± mean deviation (3-4 tests)): 4.33 ± 2.31 nM
- inhibiting sPLA2 (conclusion in words) ([2]; conclusion of Assay 1): highly active in inhibiting sPLA2

Compound: Cc1c(C(=O)C(N)=O)c2c(OCC(=O)OCCN3CCOCC3)cccc2n1Cc1cccc(-c2ccccc2)c1 [Compound of formula (I), ((3-(2-amino-1,2-dioxoethyl)-1-((1,1'-biphenyl)-3-ylmethyl)-2-methyl-1H-indol-4-yl)oxy)acetic acid morpholino-N-ethyl ester]
- oral bioavailability compared to other esters (in words) ([3]; listed as morpholino-N-ethyl ester): unexpectedly more bioavailable than other esters

Compound: Cc1c(C(=O)C(N)=O)c2c(OCC(=O)OCCN3CCOCC3)cccc2n1Cc1cccc(-c2ccccc2)c1 [formula (I)]
- oral bioavailability compared to other esters (in words) [3]: highly bioavailable upon oral administration compared to other common ester type prodrugs
